The target of one experiment is SARS-CoV-2 M^pro protease (Severe acute respiratory syndrome coronavirus 2 (2019-nCoV) (SARS-CoV-2), UniProt P0DTD1). In words: biochemical. The note with it: Table 5A; M^pro 75 nM, substrate 10 μM. It is filed as biochemical.
As to `Cc1c(Br)cncc1N1C(=O)NC2(CC(C(C)(C)C)C2)C1=O` (stereo not drawn) [Compound 5, 7-(5-bromo-4-methylpyridin-3-yl)-2-tert-butyl-5,7-diazaspiro[3.4]octane-6,8-dione], the IC50 (commonly the concentration that gives 50% inhibition) was 2700 nM. For the molecule `Cc1ccncc1N1C(=O)NC2(CC(c3ccccc3)C2)C1=O` (stereo not drawn) [Compound 11, 7-(4-methylpyridin-3-yl)-2-phenyl-5,7-diazaspiro[3.4]octane-6,8-dione], the IC50 stood at 2300 nM. This IC50 and that of the molecule before are within 1.5-fold of each other. The molecule `CC(C)(C)C1CC2(C1)NC(=O)N(c1cncc(F)c1)C2=O` (stereo not drawn) [Compound 12, 2-tert-butyl-7-(5-fluoropyridin-3-yl)-5,7-diazaspiro[3.4]octane-6,8-dione] displayed a half-maximal inhibitory concentration (IC50) of 5500 nM. Compared with the last molecule, the IC50 is about 2.4-fold higher. For the molecule `Cc1c(Br)cncc1N1C(=O)NC2(CC(c3ccccc3)C2)C1=O` (stereo not drawn) [Compound 7, 7-(5-bromo-4-methylpyridin-3-yl)-2-phenyl-5,7-diazaspiro[3.4]octane-6,8-dione], half-maximal inhibition (IC50) required 2000 nM.

Staying with this experiment, now noted: Tables 5B-5E; M^pro 75 nM, substrate 10 μM.
In turn, `CC1(c2ccccc2Cl)CC2(C1)NC(=O)N(c1cncc3ccccc13)C2=O` (stereo not drawn) [Compound 96, 2-(2-chlorophenyl)-7-(isoquinolin-4-yl)-2-methyl-5,7-diazaspiro[3.4]octane-6,8-dione] gave an IC50 of 408 nM. Still for that read-out and setting: to `O=C1NC2(CC(c3ccccc3Cl)C2)C(=O)N1c1cnccc1C(F)(F)F` (stereo not drawn) [Compound 92, 2-(2-chlorophenyl)-7-(4-(trifluoromethyl)pyridin-3-yl)-5,7-diazaspiro[3.4]octane-6,8-dione] belongs 309 nM; to `COc1ccc2cncc(N3C(=O)NC4(CC(C5CCC5)C4)C3=O)c2c1` (stereo not drawn) [Compound 57, 2-cyclobutyl-7-(6-methoxyisoquinolin-4-yl)-5,7-diazaspiro[3.4]octane-6,8-dione], 340 nM. Molecule `O=C1NC2(CC(c3ccc(F)cc3Cl)C2)C(=O)N1c1cncc2ccccc12` (stereo not drawn) [Compound 33, 2-(2-chloro-4-fluorophenyl)-7-(isoquinolin-4-yl)-5,7-diazaspiro[3.4]octane-6,8-dione] displayed a concentration for half-maximal inhibition (IC50) of 99 nM. `O=C1NC2(CC(c3c(Cl)cccc3Cl)C2)C(=O)N1c1cncc2ccccc12` (single isomer, unassigned) [Compound 28, 2-(2,6-dichlorophenyl)-7-(isoquinolin-4-yl)-5,7-diazaspiro[3.4]octane-6,8-dione] had an IC50 of 291 nM. In turn, `O=C1NC2(CC(c3ccccc3Cl)C2)C(=O)N1c1cncc2[nH]c(=O)[nH]c12` (stereo not drawn) [Compound 98, 2-(2-chlorophenyl)-7-(2-oxo-2,3-dihydro-1H-imidazo[4,5-c]pyridin-7-yl)-5,7-diazaspiro[3.4]octane-6,8-dione] came in with an IC50 of 1380 nM. Same read-out and setting: to `N#CCN1C(=O)N(c2cncc3ccccc23)C(=O)C12CC(C1CCC1)C2` (stereo not drawn) [Compound 72, 2-(2-cyclobutyl-7-(isoquinolin-4-yl)-6,8-dioxo-5,7-diazaspiro[3.4]octan-5-yl)acetonitrile] belongs 1360 nM; to `O=C1NC2(CC(c3ccsc3Cl)C2)C(=O)N1c1cncc2ccccc12` (single isomer, unassigned) [Compound 41, 2-(2-chlorothiophen-3-yl)-7-(isoquinolin-4-yl)-5,7-diazaspiro[3.4]octane-6,8-dione], 81 nM; to `O=C1NC2(CC(c3ccccc3Br)C2)C(=O)N1c1cncc2ccccc12` (single isomer, unassigned) [Compound 17, 2-(2-bromophenyl)-7-(isoquinolin-4-yl)-5,7-diazaspiro[3.4]octane-6,8-dione], 79 nM.

The molecule `O=C1NC2(CC(c3c(F)cccc3Cl)C2)C(=O)N1c1cncc2ccccc12` (single isomer, unassigned) [Compound 36, 2-(2-chloro-6-fluorophenyl)-7-(isoquinolin-4-yl)-5,7-diazaspiro[3.4]octane-6,8-dione] had an IC50 of 205 nM. Molecule `O=C1NC2(CC(c3c(F)cccc3Cl)C2)C(=O)N1c1cncc2ccccc12` (single isomer, unassigned) [Compound 37, 2-(2-chloro-6-fluorophenyl)-7-(isoquinolin-4-yl)-5,7-diazaspiro[3.4]octane-6,8-dione] came in with an IC50 of 64 nM. This IC50 is about 3.2-fold lower than that of the molecule before. On the same count and under the same terms, to `O=C1NC2(CC(c3ccccc3Cl)C2)C(=O)N1c1cncc2ccc(F)cc12` (stereo not drawn) [Compound 54, 2-(2-chlorophenyl)-7-(6-fluoroisoquinolin-4-yl)-5,7-diazaspiro[3.4]octane-6,8-dione] belongs 66 nM; to `O=C1NC2(CC(c3ccccc3Cl)C2)C(=O)N1c1cccnc1` (stereo not drawn) [Compound 100, 2-(2-chlorophenyl)-7-(pyridin-3-yl)-5,7-diazaspiro[3.4]octane-6,8-dione], 295 nM. `O=C1NC2(CC(c3sccc3Cl)C2)C(=O)N1c1cncc2ccccc12` (single isomer, unassigned) [Compound 43, 2-(3-chlorothiophen-2-yl)-7-(isoquinolin-4-yl)-5,7-diazaspiro[3.4]octane-6,8-dione] showed an IC50 of 59 nM. The same measure, in the same setting: to `O=C1NC2(CC(c3ccccc3Cl)C2)C(=O)N1c1cccnn1` (stereo not drawn) [Compound 81, 2-(2-chlorophenyl)-7-(pyridazin-3-yl)-5,7-diazaspiro[3.4]octane-6,8-dione] belongs 419 nM; to `CN1C(=O)N(c2cncc3ccccc23)C(=O)C12CC(c1ccccc1Cl)C2` (stereo not drawn) [Compound 68, 2-(2-chlorophenyl)-7-(isoquinolin-4-yl)-5-methyl-5,7-diazaspiro[3.4]octane-6,8-dione], 453 nM; to `O=C1NC2(CC(c3ccc(F)cc3)C2)C(=O)N1c1cncc2ccccc12` (stereo not drawn) [Compound 27, 2-(4-fluorophenyl)-7-(isoquinolin-4-yl)-5,7-diazaspiro[3.4]octane-6,8-dione], 441 nM. As to `O=C1NC2(CC(c3cn(Cc4ccccc4)nn3)C2)C(=O)N1c1cncc2ccccc12` (stereo not drawn) [Compound 47, 2-(1-benzyl-1H-1,2,3-triazol-4-yl)-7-(isoquinolin-4-yl)-5,7-diazaspiro[3.4]octane-6,8-dione], the IC50 was determined as 10800 nM. Take `O=C1NC2(CC(c3ccccc3Cl)C2)C(=O)N1c1cnnc2ccccc12` (stereo not drawn) [Compound 94, 2-(2-chlorophenyl)-7-(cinnolin-4-yl)-5,7-diazaspiro[3.4]octane-6,8-dione]: the IC50 came out at 1800 nM. This IC50 is about 6-fold lower than that of the molecule before. The same measure, in the same setting: to `O=C1NC2(CC(c3cc(F)ccc3Cl)C2)C(=O)N1c1cncc2ccccc12` (single isomer, unassigned) [Compound 35, 2-(2-chloro-5-fluorophenyl)-7-(isoquinolin-4-yl)-5,7-diazaspiro[3.4]octane-6,8-dione] belongs 82 nM. In turn, `CN1C(=O)N(c2cncc3ccccc23)C(=O)C12CC(C1CCC1)C2` (stereo not drawn) [Compound 69, 2-cyclobutyl-7-(isoquinolin-4-yl)-5-methyl-5,7-diazaspiro[3.4]octane-6,8-dione] returned an IC50 of 562 nM.

On to `O=C1NC2(CC(c3ccccc3Cl)C2)C(=O)N1c1cncc2nc[nH]c12` (stereo not drawn) [Compound 97, 2-(2-chlorophenyl)-7-(1H-imidazo[4,5-c]pyridin-7-yl)-5,7-diazaspiro[3.4]octane-6,8-dione], for which the IC50 stood at 287 nM. With `N#Cc1ccccc1C1CC2(C1)NC(=O)N(c1cncc3ccccc13)C2=O` (stereo not drawn) [Compound 24, 2-(7-(isoquinolin-4-yl)-6,8-dioxo-5,7-diazaspiro[3.4]octan-2-yl)benzonitrile], half-maximal inhibition (IC50) was put at 86 nM.
